According to patent US20230200393A1, “SELECTIVE HERBICIDES BASED ON SUBSTITUTED ISOXAZOLIN CARBOXAMIDES AND METCAMIFEN” (Bayer Aktiengesellschaft, priority 2020, published 2023):

Columns and labels:
ZEAMA Sileno [1] = test: Tank-mix post-emergence crop damage, herbicide with/without safener metcamifen; assay type: in vivo, maize; conditions: for HER effect + SAF / Reduction [Difference] / Reduction [%]: Final; for HER effect: no safener, Final assessment, post-emergence
Description: (§1) Seeds of crops (spring wheat, TRZAS; spring barley, HORVS; maize, ZEAMA) were placed in sandy loam soil in peat pots, covered with soil and cultivated in a greenhouse under good growth conditions. Two to three weeks after sowing, the test plants were treated at the 1 to 3-leaf stage. The herbicide/safener active compound combinations according to the invention, formulated as wettable powders or emulsion concentrates, and, in parallel tests, the correspondingly formulated individual active compounds were sprayed onto the green parts of the plants in various dosages using an amount of water of 300 l/ha (converted).
(§2) The pots were returned under good growing conditions in a glasshouse and a visual assessment of herbicidal effects was made at intervals from 1 to 3 weeks after herbicide application (DAT=days after treatment). Assessment was on a percentage basis in comparison with untreated control plants (0%=no injury, 100%=complete kill).

TRZAS Triso [2] = test: Safener seed treatment, pre-emergence herbicide crop damage; assay type: in vivo, spring wheat; conditions: 21 (Final) DAT; for HER effect: no safener
Description: (§3) For the safener seed treatment, sufficient seeds of the respective crops (spring wheat, TRZAS; spring barley, HORVS; maize, ZEAMA) were weighed into screw top glass bottles approximately twice the volume of the seeds.
(§4) The specified safeners, formulated as wettable powder (WP) were weighed out so that the specified rates (g a.i./kg seed) would be obtained, dissolved in water (1 ml water per 10 g of seeds), and added to the seeds to produce a slurry.
(§5) The bottles were capped and then placed in an overhead shaker (set at medium speed for ca. 60 minutes) so that the seeds were evenly coated with the slurry. The bottles were uncapped and the seeds were either placed on paper and dried for an interval of 3-4 hours prior to sowing, or directly sown. Seeds were placed in sandy loam soil in pots of a diameter of 7-8 cm, and covered with soil.
(§6) Pre-emergence application of the specified herbicides was done subsequently, on two sets of plants:
(§7) a) seed treatment with safener, as described above
(§8) The herbicides were formulated as WP and was sprayed onto the soil surface as an aqueous suspension at an equivalent water application rate of 300 l/ha.
(§9) After application, the test plants were kept in the greenhouse under good growth conditions. At intervals up to 4 weeks after application (=28 days after treatment; DAT), % crop damage observed on the treated plants was scored visually in comparison to control plants that had not received any safener or herbicide treatment.
(§10) Values in the table below are mean values of at least 2 replicates.

ZEAMA Sileno [3] = test: as above; assay type: in vivo, maize; conditions: for HER effect: no safener
Description: as §3, §4, §5, §6, §7, §8, §9, §10

TRZAS Triso [4] = test: Tank-mix post-emergence crop damage, herbicide with/without safener metcamifen; assay type: in vivo, spring wheat; conditions: 21 DAT
Description: as §1, §2

[5] = HER 8 g a.i./ha + metcamifen 100 g a.i./ha
[6] = HER 32 g a.i./ha + metcamifen 50 g a.i./ha
[7] = HER 5 g a.i./ha + metcamifen seed treatment 0.25 g a.i./kg seed
[8] = HER 40 g a.i./ha + metcamifen seed treatment 0.25 g a.i./kg seed, 14 DAT
[9] = HER 40 g a.i./ha + metcamifen seed treatment 0.25 g a.i./kg seed, 26 DAT
[10] = HER 80 g a.i./ha + metcamifen seed treatment 0.25 g a.i./kg seed, 14 DAT
[11] = HER 15 g a.i./ha + metcamifen seed treatment 0.25 g a.i./kg seed
[12] = HER 40 g a.i./ha pre-emergence, 14 DAT
[13] = HER 80 g a.i./ha + metcamifen seed treatment 0.25 g a.i./kg seed, 26 DAT
[14] = HER 8 g a.i./ha + metcamifen 50 g a.i./ha
[15] = HER 32 g a.i./ha + metcamifen 100 g a.i./ha
[16] = HER 0.5 g a.i./ha + metcamifen 50 g a.i./ha
[17] = HER 2 g a.i./ha + metcamifen 50 g a.i./ha

## C=CC1(C(=O)NC2COC(C(=O)OC)C2)CC(c2cc(F)cc(F)c2)=NO1 (mixture of isomers) [Example 1.68]
ZEAMA Sileno [1]; [5]
  HER effect + SAF: 48%
  Reduction [Difference]: 48
ZEAMA Sileno [1]; HER 8 g a.i./ha
  HER effect: 96%
ZEAMA Sileno [1]; [6]
  HER effect + SAF: 67%
  Reduction [%]: 32%
  Reduction [Difference]: 31
ZEAMA Sileno [1]; HER 32 g a.i./ha
  HER effect: 98%
TRZAS Triso [2]; [7]
  HER effect + SAF: 10%
  Reduction [%]: 78%
ZEAMA Sileno [3]; [8]
  HER effect + SAF: 30%
  Reduction [%]: 68%
  Reduction [Difference]: 63
ZEAMA Sileno [3]; [9]
  Reduction [%]: 74%
  Reduction [Difference]: 70
ZEAMA Sileno [3]; HER 40 g a.i./ha pre-emergence, 26 DAT
  HER effect: 95%
ZEAMA Sileno [3]; [10]
  HER effect + SAF: 75%
  Reduction [%]: 23%
  Reduction [Difference]: 22
ZEAMA Sileno [3]; HER 80 g a.i./ha pre-emergence, 14 DAT
  HER effect: 97%

## COC(=O)C1COCC1NC(=O)C1(C)CC(c2cc(F)cc(F)c2)=NO1 (mixture of isomers) [Example 1.93]
TRZAS Triso [2]; [7]
  HER effect + SAF: 5%
  Reduction [%]: 86%
  Reduction [Difference]: 30
TRZAS Triso [2]; HER 5 g a.i./ha pre-emergence
  HER effect: 35%
TRZAS Triso [2]; [11]
  HER effect + SAF: 10%
  Reduction [%]: 85%
  Reduction [Difference]: 55
TRZAS Triso [2]; HER 15 g a.i./ha pre-emergence
  HER effect: 65%

## COCCOC(=O)C1C=CC(NC(=O)C2(C(F)(F)F)CC(c3cc(F)cc(C#N)c3)=NO2)C1 (stereo not drawn) [Example 1.2]
ZEAMA Sileno [3]; [8]
  HER effect + SAF: 20%
  Reduction [%]: 50%
  Reduction [Difference]: 20
ZEAMA Sileno [3]; [12]
  HER effect: 40%

## COCCOC(=O)C1C=CC(NC(=O)C2(C)CC(c3cc(Cl)cc(C#N)c3)=NO2)C1 (stereo not drawn) [Example 1.5]
ZEAMA Sileno [3]; [10]
  HER effect + SAF: 35%
  Reduction [%]: 42%
ZEAMA Sileno [3]; [13]
  HER effect + SAF: 25%
  Reduction [%]: 44%

## CSCCOC(=O)C1C=CC(NC(=O)C2(C(F)(F)F)CC(c3cc(F)cc(F)c3)=NO2)C1 (stereo not drawn) [Example 1.7]
ZEAMA Sileno [3]; [8]
  HER effect + SAF: 55%
  Reduction [%]: 34%
  Reduction [Difference]: 28
ZEAMA Sileno [3]; [9]
  Reduction [%]: 44%
  Reduction [Difference]: 20
ZEAMA Sileno [3]; [12]
  HER effect: 83%

## C=CC1(C(=O)NC2C=CC(C(=O)OC)C2)CC(c2cc(F)cc(F)c2)=NO1 (stereo not drawn) [Example 1.26]
ZEAMA Sileno [1]; [14]
  HER effect + SAF: 22%
  Reduction [%]: 61%
  Reduction [Difference]: 35
ZEAMA Sileno [1]; HER 8 g a.i./ha
  HER effect: 57%
ZEAMA Sileno [1]; [15]
  HER effect + SAF: 35%
  Reduction [%]: 63%
  Reduction [Difference]: 59
ZEAMA Sileno [1]; HER 32 g a.i./ha
  HER effect: 94%
TRZAS Triso [4]; [16]
  HER effect + SAF: 20%
  Reduction [%]: 50%
TRZAS Triso [4]; [17]
  HER effect + SAF: 80%
  Reduction [%]: 11%
  Reduction [Difference]: 10
TRZAS Triso [4]; HER 2 g a.i./ha, no safener
  HER effect: 90%
ZEAMA Sileno [3]; [12]
  HER effect: 25%
ZEAMA Sileno [3]; [10]
  Reduction [%]: 86%
ZEAMA Sileno [3]; [13]
  Reduction [%]: 86%

## C=CC1(C(=O)NC2COC(C(=O)OC)C2)CC(c2cc(F)cc(F)c2)=NO1 (stereo not drawn) [Example 1.69]
ZEAMA Sileno [3]; [8]
  HER effect + SAF: 20%
  Reduction [%]: 79%
  Reduction [Difference]: 75
ZEAMA Sileno [3]; [9]
  Reduction [%]: 67%
  Reduction [Difference]: 60

## C=CC1(C(=O)NC2COC(C(=O)OC)C2)CC(c2cc(F)cc(F)c2)=NO1 (stereo not drawn) [Example 1.70]
ZEAMA Sileno [3]; [8]
  HER effect + SAF: 20%
  Reduction [%]: 75%
  Reduction [Difference]: 60
ZEAMA Sileno [3]; [9]
  HER effect + SAF: 5%
  Reduction [%]: 94%
  Reduction [Difference]: 80
ZEAMA Sileno [3]; [10]
  Reduction [%]: 63%
  Reduction [Difference]: 60
ZEAMA Sileno [3]; [13]
  HER effect + SAF: 25%
  Reduction [%]: 74%
  Reduction [Difference]: 70

## C=CC1(C(=O)NC2C=C(C(=O)OC)OC2)CC(c2cc(C)cc(C)c2)=NO1 (stereo not drawn) [Example 1.90]
ZEAMA Sileno [3]; [13]
  Reduction [%]: 83%
  Reduction [Difference]: 25
ZEAMA Sileno [3]; HER 80 g a.i./ha pre-emergence, 26 DAT
  HER effect: 30%

## COC(=O)C1OCCC1NC(=O)C1(C)CC(c2cc(F)cc(F)c2)=NO1 (stereo not drawn) [Example 1.92]
ZEAMA Sileno [3]; [8]
  Reduction [%]: 87%
  Reduction [Difference]: 65
ZEAMA Sileno [3]; [9]
  HER effect + SAF: 0%
  Reduction [%]: 100%
